The source of these data is patent US20230295213A1, “CD73 INHIBITORS AND PHARMACEUTICAL USES THEREOF” (RISEN (SUZHOU) PHARMA TECH CO., LTD., priority 2018, published 2023).

One data set addresses CD73 (Homo sapiens (Human), UniProt P21589). The experiment in a line: CD73 cellular assay (T cell stimulation assay). The settings on record: human T cells, anti-CD3/CD28 stimulated, AMP + EHNA, 72 hours. In kind it is cell-based. The procedure: Procedures for T cell stimulation assay were the following: Day 1, coating the plate: diluting anti-CD3 to 1 μg/mL with sterile PBS; coating 96 well flat bottom tissue culture plates (Corning #3599) with 50 uL of diluted anti-CD3, centrifuging (1000 rpm) for 1 min; sealing the plate and incubating the plate at 4° C. overnight for antibody crosslinking.
Day 2, human T cell seeding: (a) washing the coated plate (from Day 1) with sterilized PBS buffer (2×100 uL); (b) re-suspending T cells and adjusting cell density to 0.5×10^6 cells/mL with growth media (X-VIVO 15+1% Pen/strep+1% glutamine), and seeding 100 μL/well (50,000 cells/well) in 96-well plates; (c) diluting CD28 antibody for 8x working concentration (8 μg/mL) with growth media, giving 1 μg/mL of the final concentration, followed by addition of CD28 antibody (25 μL) to cell plate; incubating the plates under 5% CO2 at 37° C. for 60 min; (d) adding compound (25 μL, 8x dilution with growth media) to cell plate, and incubating the plates under 5% CO2 at 37° C. for 60 min; (e) adding AMP (25 μL) and EHNA (25 μL, 8x dilution with growth media) to cell plate; (f) incubating the plates under 5% CO2 at 37° C. for 72 hours.
Day 5, collecting cell growth media and testing cell proliferation: (a) centrifuging the cell plate (1,000 rpm) for 5 min; (b) harvesting 150 μL of the cell culture media from each well to 96 well plate, followed by measurement of IFN-r expression by ELISA test; (c) taking a portion of the cell culture supernatant for cytokine analysis, removing the remaining supernatant, followed by addition of fresh growth media (X-VIVO 15+1% Pen/strep+1% glutamine, 100 μL); (d) adding Celltiter-Glo solution (50 μL) into each well for the measurement of cell proliferation by: (e) incubating the plates at room temperature for 10 min on a shaker; (f) transferring 100 μL solution into 96-well white plate and taking the readout of the Celltiter-Glo data using a TECAN Reader.

The nature of data set [1]: Pharmacokinetic evaluation in ICR mice, intravenous. In kind it is in vivo. The settings on record: mouse; ICR male mice, 1.0 mg/kg intravenous, plasma. The procedure:
A test compound (1.0 mg/kg) was administered to fasted ICR male mice via intravenous injection, and blood samples were collected at time points of 0.08, 0.25, 0.5, 1, 2, 4, 6, 8 and 24 h after the administration. Plasma sample was separated by centrifugation (8000 rpm) and stored at −80° C. until the sample was analyzed. Concentrations of the test compound in the plasma were determined by HPLC-MS/MS: the plasma was dispensed into appropriate tubes containing internal standard and methanol or acetonitrile. The tubes were mixed vigorously for 3 minutes to achieve deproteinization and then centrifuged at 8000 rpm for 5 minutes. The supernatant was transferred to an autosampler vial, injected into the chromatographic system, and quantified on MS/MS detector. Pharmacokinetic parameters including AUC0-t, Cmax, Tmax, t1/2, MRT, Cl and Vd were calculated using WinNonlin 6.3 software. Table 3 summarizes key PK parameters for test compounds (AUC(0-t): the area under the curve from time 0 to time t; AUC(0-∞): the area under the curve from time 0 to infinity; t1/2: Half-life; CL: clearance; C0: the concentration of drug in blood if the drug molecules enter the circulation and are distributed immediately (i.e., at time 0)).

The target of data set [2] is Recombinant human 5′-nucleotidase (hCD73) (Homo sapiens (Human), UniProt P21589). The experiment in a line: CD73 enzyme inhibition assay (hCD73, AMP substrate, PiColorLock Gold phosphate detection). In kind it is biochemical. The settings on record: hCD73 1 nM solution, AMP 60 μM solution, 37° C. 20 min, absorbance 635 nm. The method, then: Test compound solution preparation: Stock solution of a test compound was prepared in DMSO at 10 mM concentration. A series of preset 10-concentration solutions of a test compound were prepared by diluting the stock solution in 5-fold gradient dilution with DMSO.
Assay buffer (lx): 20 mm Tris, 25 mM NaCl, 1 mM MgCl2, pH 7.5, 0.005% Tween-20 (freshly prepared, and ready for use).
An aliquot of 0.25 μL of compound solution or DMSO (blank control) was added to each test well of a micro well plate. Recombinant human 5′-nucleotidase (hCD73) was diluted to 1 nM in assay buffer; and an aliquot of 25 μL hCD73 (1 nM) solution was added to the corresponding wells of the plate. The contents of the well were well-mixed, and the plate was covered with sealing film, centrifuged at 1000 rpm for 30 sec., followed by incubation at room temperature for 15 min. AMP, the substrate, was diluted to 60 μM concentration in the assay buffer. To each reaction well was added 25 μL of AMP solution. After mixing well, the plate was covered with sealing film, centrifuged at 1000 rpm for 30 sec., and incubated at 37° C. for 20 min. The absorbance signal (end point) was measured on SPARK plate reader at 635 nm (See PiColorLock™ Gold Phosphate Detection System (Abcam) test kit for reference).
The reaction wells containing CD73 enzyme, substrate AMP and DMSO (no compound) were used as positive control, and the reaction wells containing substrate AMP and DMSO but no CD73 enzyme were used as negative control. The percent (%) inhibition at each concentration of compound was calculated based on and relative to the signal in the High and Low control wells contained within each assay plate. The High control wells were considered as 0% inhibition, and the low control wells, which didn't contain any compound but rather DMSO (final concentration=0.5%), as 100% inhibition. IC50 values were obtained using GraphPad Prism software.

Where [3] appears, read: read-out: EC50, CTG (CellTiter-Glo, cell proliferation).
Where [4] appears, read: read-out: EC50, IFN-γ (ELISA, indicator for T-cell activity).

SMILES strings stand for the structures. Read-outs that look alike come from different tables or passages of the source.

As a reminder, the AUC(0-inf) is the area under the concentration-time curve extrapolated to infinity. Low readings indicate less exposure, high ones more exposure. For orientation: AUC(0-t) means the area under the concentration-time curve up to a stated or last time point. A lower AUC(0-t) goes with less exposure. Usually Cmax stands for the highest concentration seen after dosing. By half-life is commonly meant how long it takes for the measured level to halve. A lower half-life goes with rapid decline. For orientation: IC50 means the concentration that gives 50% inhibition.

Sequence of CD73 (P21589 27-574): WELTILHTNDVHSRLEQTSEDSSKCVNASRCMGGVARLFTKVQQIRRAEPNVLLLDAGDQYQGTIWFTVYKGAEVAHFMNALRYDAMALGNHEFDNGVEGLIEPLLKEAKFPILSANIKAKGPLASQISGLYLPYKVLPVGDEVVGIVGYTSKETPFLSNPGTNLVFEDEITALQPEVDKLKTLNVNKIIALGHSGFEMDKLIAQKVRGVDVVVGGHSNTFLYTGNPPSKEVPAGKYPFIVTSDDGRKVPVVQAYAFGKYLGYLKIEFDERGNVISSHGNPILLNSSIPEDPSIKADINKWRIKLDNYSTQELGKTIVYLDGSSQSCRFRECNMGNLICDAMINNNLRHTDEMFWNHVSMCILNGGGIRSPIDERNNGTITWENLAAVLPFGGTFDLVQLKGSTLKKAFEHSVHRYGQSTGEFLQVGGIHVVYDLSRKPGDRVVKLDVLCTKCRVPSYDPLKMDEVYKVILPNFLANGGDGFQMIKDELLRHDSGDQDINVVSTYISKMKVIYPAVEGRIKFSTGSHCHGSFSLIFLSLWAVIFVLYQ
Sequence of Recombinant human 5′-nucleotidase (hCD73) (P21589 27-574): as above

For the compound `O=P(O)(O)CP(=O)(O)OC[C@H]1O[C@@H](n2cnc3c(N4CCC5(CCCCC5)C4)nc(Cl)nc32)C(O)C1O` (stereo partly drawn) [Compound b, reference compound], the EC50 at CD73 (setting [3]) came to 7.53 nM; at CD73 (setting [4]), 14.2 nM.

Consider `O=P(O)(O)CP(=O)(O)OC[C@H]1O[C@@H](n2cnc3c(N4CC5(CCCCC5)c5ccccc54)nc(Cl)nc32)[C@@H](O)C1O` (stereo partly drawn) [d-7], for which, in data set [1], the AUC(0-inf) stood at 197000 ng·h/mL, the AUC(0-t) came to 107000 ng·h/mL, the highest level (Cmax) was 12500 ng/mL and the half-life is 1280 min. The IC50 in data set [2] turned out to be 1.8 nM.

In data set [1], `O=P(O)(O)CP(=O)(O)OC[C@H]1O[C@@H](n2cnc3c(N4CCC5(CC4)Cc4ccccc4C5)nc(Cl)nc32)[C@@H](O)C1O` (stereo partly drawn) [d-21] gave an AUC(0-inf) of 7450 ng·h/mL, an AUC(0-t) of 7430 ng·h/mL, a Cmax of 12200 ng/mL and a half-life of 53.9 min. For the same compound, the IC50 in data set [2] was determined as 1.42 nM.

In data set [1], `O=P(O)(O)CP(=O)(O)OC[C@H]1O[C@@H](n2cnc3c(N4CCC5(CCCCC5)C4)nc(Cl)nc32)[C@@H](O)C1O` (stereo partly drawn) [Compound b, reference compound] showed an AUC(0-inf) of 9120 ng·h/mL, an AUC(0-t) of 9110 ng·h/mL, a Cmax of 15200 ng/mL and a half-life of 51 min. Besides, the IC50 in data set [2] came to 1.08 nM.

On to `O=P(O)(O)CP(=O)(O)OC[C@H]1O[C@@H](n2cnc3c(N4CCC(c5ccccc5)(c5ccccc5)C4)nc(Cl)nc32)C(O)C1O` (stereo partly drawn) [d-33], for which the IC50 in data set [2] worked out at 1.76 nM. For the same compound, the results for the EC50 at CD73 (setting [3]) and on CD73 (setting [4]) were 4.07 nM and 2.53 nM, respectively.

On to `O=P(O)(O)CP(=O)(O)OC[C@H]1O[C@@H](n2cnc3c(N4CC5(CCc6ccccc65)C4)nc(Cl)nc32)C(O)C1O` (stereo partly drawn) [d-1], for which the EC50 at CD73 (setting [3]) was 3.13 nM; at CD73 (setting [4]), 1.45 nM.

As to `O=P(O)(O)CP(=O)(O)OC[C@H]1O[C@@H](n2cnc3c(N4CC5(CCc6ccccc65)C4)nc(Cl)nc32)[C@@H](O)C1O` (stereo partly drawn) [d-1], in data set [1], the AUC(0-inf) stood at 6360 ng·h/mL, the AUC(0-t) was found to be 6360 ng·h/mL, the peak level (Cmax) was 8850 ng/mL and the half-life was 33.4 min. The IC50 in data set [2] turned out to be 0.47 nM.
